# Laboratory results taken from PubChem BioAssay (NCI).
#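 Tested at 5 concentrations; 48 h exposure; 96-well plates; endpoints linearly interpolated, else capped at highest concentration. Definition used: TGI = concentration required for complete inhibition of growth.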
# What was measured:
# Assay in all cases: inhibition of tumour cell growth, NCI panel, 48 h
# OVCAR-5 ovarian = test system: OVCAR-5 ovarian
# CAKI-1 renal = test system: CAKI-1 renal
# RPMI-8226 leukemia = test system: RPMI-8226 leukemia
# NCI-H23 lung = test system: NCI-H23 lung
# NCI/ADR-RES ovarian = test system: NCI/ADR-RES ovarian
# HCT-15 colon = test system: HCT-15 colon
# LOX IMVI melanoma = test system: LOX IMVI melanoma
# SF-295 CNS = test system: SF-295 CNS
# MALME-3M melanoma = test system: MALME-3M melanoma
# SK-MEL-5 melanoma = test system: SK-MEL-5 melanoma
Compound,TGI (OVCAR-5 ovarian),TGI (CAKI-1 renal),TGI (RPMI-8226 leukemia),TGI (NCI-H23 lung),TGI (NCI/ADR-RES ovarian),TGI (HCT-15 colon),TGI (LOX IMVI melanoma),TGI (SF-295 CNS),TGI (MALME-3M melanoma),TGI (SK-MEL-5 melanoma)
Cc1nc(-c2ccc([N+](=O)[O-])cc2)cn2c1nc1ccccc12,> 100 µM,> 100 µM,> 100 µM,> 100 µM,> 100 µM,> 100 µM,> 100 µM,> 100 µM,> 100 µM,–
N.N.N.O=[N+]([O-])[O-].O=[N+]([O-])[O-].O=[N+]([O-])[O-].O=[N+]([O-])[O-].[Co+3],> 100 µM,–,> 100 µM,> 100 µM,–,> 100 µM,> 100 µM,> 100 µM,> 100 µM,> 100 µM
COCOC1/C=C/CCCCC2=C(C)C=C(C1)O2 (centres undefined),> 100 µM,> 100 µM,> 100 µM,> 100 µM,> 100 µM,> 100 µM,> 100 µM,> 100 µM,> 100 µM,> 100 µM
C=C(C(=O)C(=O)Oc1ccc(Cl)cc1)C(=O)c1ccc(C)cc1,> 100 µM,> 100 µM,> 100 µM,> 100 µM,–,> 100 µM,16.5 µM,> 100 µM,> 100 µM,> 100 µM
Cc1c(F)c(N)c2c(=O)cc(-c3ccc(NC(=O)CN(C)C)c(F)c3)oc2c1F,> 100 µM,> 66.1 µM,> 83 µM,> 100 µM,> 100 µM,> 100 µM,> 100 µM,> 100 µM,> 100 µM,> 100 µM
CC1=C(O)C(=O)[C@@H]2O[C@@H]2C1=O,33.9 µM,16.7 µM,16.5 µM,35.8 µM,44.9 µM,22 µM,26.8 µM,72.1 µM,17.2 µM,30.1 µM
COc1cc(/C=C2/C(=O)N(C(=O)c3ccccc3O)N=C2C)cc(OC)c1OC,> 100 µM,> 25.8 µM,> 100 µM,> 21.8 µM,> 100 µM,> 100 µM,> 100 µM,> 100 µM,> 100 µM,33.6 µM
Cc1c(-c2nc3ccccc3[nH]2)c(=O)n(-c2ccccc2)n1C,–,> 100 µM,> 100 µM,> 100 µM,> 100 µM,> 100 µM,> 100 µM,> 100 µM,> 100 µM,> 100 µM
O=C(/C=C/c1ccc(O)c([N+](=O)[O-])c1)CC(=O)/C=C/c1ccc(O)c([N+](=O)[O-])c1,> 100 µM,–,34.5 µM,> 100 µM,> 100 µM,> 100 µM,27.5 µM,> 100 µM,–,> 100 µM
Cc1ccc(-c2c(C#N)c(-c3ccccc3)n(NS(=O)(=O)c3ccccc3)c(=O)c2C#N)cc1,> 100 µM,> 100 µM,55.3 µM,–,> 100 µM,> 100 µM,> 100 µM,> 100 µM,> 100 µM,> 100 µM
Cc1nnc(Nc2ccccc2)o1,> 100 µM,> 100 µM,> 100 µM,> 100 µM,> 100 µM,> 100 µM,> 100 µM,> 100 µM,> 100 µM,> 100 µM
O=C(O)c1c2c(cc3c1CC1(Cc4ccccc4C1)C3)CCC2,> 100 µM,> 100 µM,> 100 µM,> 100 µM,> 100 µM,> 100 µM,74.4 µM,> 100 µM,> 100 µM,> 100 µM
COc1ccc(-n2c(=O)c3[nH]cnc3n(-c3ccc(OC)cc3)c2=S)cc1,> 100 µM,> 100 µM,> 100 µM,> 100 µM,> 100 µM,> 100 µM,> 100 µM,> 100 µM,–,> 100 µM
CCCc1cc(=O)c2c(C)c3[nH]c4ccc(Cl)cc4c3c(C)c2[nH]1,5.58 µM,4.37 µM,–,10.5 µM,10.2 µM,3.37 µM,3.33 µM,3.96 µM,23 µM,21.4 µM
NCC1CCN(c2nc3ccccc3c3c2CCCC3)CC1,24.7 µM,21.4 µM,6.3 µM,30.1 µM,32.3 µM,14.9 µM,16 µM,26.7 µM,26 µM,7.62 µM
CN(C)CCCOC(=O)C(c1ccccc1)C1(O)CCSCC1 (centres undefined),> 100 µM,> 100 µM,> 100 µM,> 100 µM,> 100 µM,> 100 µM,> 100 µM,> 100 µM,> 100 µM,> 100 µM
CC(C)OP(=O)(OC(C)C)c1c(Nc2ccccc2)n[nH]c1N,> 100 µM,> 100 µM,> 100 µM,> 100 µM,> 100 µM,> 100 µM,> 100 µM,> 100 µM,> 100 µM,> 100 µM
COc1cccc(-c2cc(=O)c3ccccc3o2)c1N,> 100 µM,> 100 µM,> 100 µM,> 100 µM,> 100 µM,> 100 µM,> 100 µM,> 100 µM,> 56 µM,> 100 µM
CN1C(=O)N(c2ccccc2)C2(CCN(CC3COc4ccccc4O3)CC2)C1=O (centres undefined),> 100 µM,> 100 µM,> 100 µM,> 100 µM,> 100 µM,> 100 µM,> 100 µM,> 100 µM,> 100 µM,> 100 µM
Cc1nc2c(sc(=S)n2-c2ccccc2)c2nc3ncccc3n12,> 100 µM,> 100 µM,> 100 µM,> 100 µM,> 100 µM,> 100 µM,> 100 µM,> 100 µM,> 100 µM,> 100 µM
C#CCCCCC#Cc1ccccc1C(=O)OC,> 100 µM,–,41.5 µM,> 100 µM,–,> 100 µM,33.1 µM,> 100 µM,> 100 µM,> 100 µM
COc1ccc(C(C#N)NNC(=O)c2ccccc2O)cc1OC (centres undefined),> 100 µM,61.4 µM,> 100 µM,28.4 µM,–,> 100 µM,59.3 µM,> 100 µM,> 100 µM,46.9 µM
COc1ccc(-c2cc(-c3ccco3)c(C#N)c(=S)n2C2OC(COC(C)=O)C(OC(C)=O)C(OC(C)=O)C2OC(C)=O)cc1 (centres undefined),30.9 µM,13.9 µM,22.8 µM,–,37.7 µM,> 100 µM,15.1 µM,4.65 µM,16.9 µM,22.8 µM

Compound,TGI (OVCAR-5 ovarian),TGI (CAKI-1 renal),TGI (RPMI-8226 leukemia),TGI (NCI-H23 lung),TGI (NCI/ADR-RES ovarian),TGI (HCT-15 colon),TGI (LOX IMVI melanoma),TGI (SF-295 CNS),TGI (MALME-3M melanoma),TGI (SK-MEL-5 melanoma)
O=C(O)CSc1nnc(COc2ccc(Cl)cc2)n1-c1ccccc1,> 100 µM,> 100 µM,–,> 100 µM,> 100 µM,> 100 µM,> 100 µM,> 100 µM,> 100 µM,–
CN(C)/N=N/c1nc2c(c(=O)n(C)c(=O)n2C)n1C,> 100 µM,> 100 µM,> 100 µM,–,> 100 µM,> 100 µM,> 100 µM,> 100 µM,> 100 µM,> 100 µM
O=C(NNC(=S)Nc1ccc(Cl)cc1)c1cc(-c2ccccc2)nc2ccccc12,24.4 µM,20.6 µM,48 µM,17.2 µM,30.7 µM,14.9 µM,–,9.22 µM,17.5 µM,16.4 µM
O=c1[nH]n2c(=O)cc[nH]c2c1-c1nnns1,> 100 µM,> 100 µM,> 100 µM,> 100 µM,–,> 100 µM,> 100 µM,> 100 µM,> 100 µM,> 100 µM
COC(=O)C(/C(=N/NC(N)=O)C(=O)Nc1ccc(C)cc1)c1nc2ccc([N+](=O)[O-])cc2[nH]c1=O (centres undefined),> 100 µM,> 100 µM,> 100 µM,–,> 100 µM,> 100 µM,> 100 µM,> 100 µM,> 100 µM,> 100 µM
OCC1CCCCCCCCCCC12SCCCS2 (centres undefined),> 100 µM,> 100 µM,> 100 µM,> 100 µM,> 100 µM,> 100 µM,> 100 µM,–,> 100 µM,> 100 µM
Nc1ccc2nc(-c3ccccn3)c(-c3ccccn3)nc2c1,> 100 µM,> 100 µM,> 100 µM,–,> 100 µM,> 100 µM,> 100 µM,> 100 µM,> 100 µM,> 100 µM
COc1cc(-c2cc(=O)c3cc4c(cc3[nH]2)OCO4)cc(OC)c1O,> 10 µM,> 10 µM,> 10 µM,> 10 µM,> 10 µM,> 10 µM,> 10 µM,> 10 µM,–,> 10 µM
CC1=C2C(=O)NN=C2CCN1c1ccc(Br)cc1,> 100 µM,> 100 µM,–,> 100 µM,> 100 µM,> 100 µM,> 100 µM,> 100 µM,> 100 µM,> 100 µM
C/C(CCOC1CCCCO1)=C(\C)[Si](C)(C)C (centres undefined),> 100 µM,–,> 100 µM,> 100 µM,–,> 100 µM,> 100 µM,> 100 µM,> 100 µM,> 100 µM
CC1(C)CC(/C=C2/OC(=O)c3ccccc32)=C(C#N)C(=O)O1,> 100 µM,> 100 µM,> 100 µM,> 100 µM,–,> 100 µM,> 100 µM,> 100 µM,> 100 µM,> 100 µM
c1ccc2c(c1)OC(N1CCCC1)c1cnc(N3CCCC3)nc1-2 (centres undefined),> 100 µM,78 µM,45.8 µM,> 100 µM,–,> 100 µM,> 100 µM,82.1 µM,> 100 µM,–
CCOC(=O)CNC(=O)C(CSCc1ccc(Br)cc1)NC(=O)CCC(N)C(=O)OCC (centres undefined),> 50 µM,> 50 µM,> 50 µM,> 50 µM,> 50 µM,> 50 µM,–,> 50 µM,–,> 50 µM
CC(CN1c2ccccc2Sc2ccccc21)N(C)C (centres undefined),32.8 µM,34.1 µM,–,38.2 µM,30.5 µM,35.1 µM,35.9 µM,28.9 µM,34.5 µM,35.6 µM
CSc1nc(Cl)c2c(n1)Sc1nc3cc4c(cc3n1C2O)OCCO4 (centres undefined),36 µM,1.21 µM,2 µM,19.9 µM,0.407 µM,11.1 µM,0.392 µM,38.5 µM,32.6 µM,–
O=C(CN1c2ccccc2Sc2ccccc21)N1CCNCC1,> 100 µM,–,> 100 µM,> 100 µM,> 100 µM,> 100 µM,> 100 µM,> 100 µM,> 100 µM,> 100 µM
Nc1cc(CO)cc(Nc2nc3ccc(Cl)cc3c3[nH]c4ccccc4c23)c1,17.6 µM,8.33 µM,9.78 µM,40 µM,42.5 µM,18.6 µM,–,15 µM,15.8 µM,–
OCc1ccc2[n+](c1)CCC1c3ccccc3NC21 (centres undefined),–,> 300 µM,> 300 µM,> 300 µM,–,> 300 µM,> 300 µM,> 300 µM,> 300 µM,> 300 µM
O=C1/C(=C/c2ccccc2)N=C(c2ccccc2)N1n1c(-c2ccccc2)nc2ccccc2c1=O,> 100 µM,–,> 100 µM,> 100 µM,> 100 µM,> 100 µM,> 100 µM,> 100 µM,> 100 µM,> 100 µM
COC(=O)C(CCC#N)(CCC#N)C(=O)OC,–,–,> 100 µM,> 100 µM,–,> 100 µM,> 100 µM,> 100 µM,> 100 µM,> 100 µM
O=C(O)CN(CCNC(=O)OCC1c2ccccc2-c2ccccc21)CCNC(=O)OCC1c2ccccc2-c2ccccc21,96.3 µM,–,76.1 µM,49.6 µM,> 100 µM,70.3 µM,32.4 µM,54.7 µM,38.9 µM,36.8 µM
CC(O[Si](c1ccccc1)(c1ccccc1)C(C)(C)C)[C@H](NC(=O)OC(C)(C)C)C(=O)O[Si](c1ccccc1)(c1ccccc1)C(C)(C)C (some centres undefined),30.4 µM,27 µM,62.6 µM,26.1 µM,29 µM,18.8 µM,–,21.4 µM,34.3 µM,30.9 µM
CCOC(=O)C1Cc2[nH]c3ccccc3c2C(C)C1C (centres undefined),32.2 µM,33.9 µM,–,27.3 µM,–,32.1 µM,28.2 µM,42.3 µM,33.2 µM,26.9 µM
